Here are results for two compounds from ChEMBL document CHEMBL5236635, “Structure-Based Drug Design and Synthesis of Novel N-Aryl-2,4-bithiazole-2-amine CYP1B1-Selective Inhibitors in Overcoming Taxol Resistance in A549 Cells” (J Med Chem, 2022).

By inhibition is commonly meant the drop in the measured response relative to a control, in per cent. For orientation: IC50 means the midpoint of a concentration-inhibition curve.

The structures appear in SMILES notation. Active and inactive are the calls of the source. No cut-off for these calls is given here.

Series [1] relates to A549. As to the kind of experiment: Inhibition of DMBA-induced AKT overexpression in human taxol resistance A549 cells incubated for 24 hrs. It counts as functional, cell-based. To be noted: dose 5.0 µM.
Series [2] concerns NCI-H460. The series can be described thus: Upregulation of DMBA-induced CYP1B1 expression level in human NCI-H460 cells at 5 uM incubated for 24 hrs. It counts as functional, cell-based.
The test system of series [3] is A549. The series can be described thus: Inhibition of DMBA-induced CYP1B1 overexpression in human A549 cells assessed as increase in N-cadherin level incubated for 24 hrs by densitometry analysis. The note with it: dose 5.0 µM. The format is functional, cell-based.
Series [4] concerns NCI-H460. The series can be described thus: Inhibition of cell invasion in DMBA-induced human NCI-H460 cells at 5 uM by optical microscopic analysis. It counts as functional, cell-based.
Series [5] concerns A549. The series can be described thus: Inhibition of DMBA-induced CYP1B1 overexpression in human A549 cells assessed as effect on MMP-9 level at 5 uM incubated for 24 hrs by densitometry analysis. The format is functional, cell-based.
Series [6] concerns the target T1, CYP1B1 (Homo sapiens, UniProt Q16678).
T1 sequence (Q16678 whole entry): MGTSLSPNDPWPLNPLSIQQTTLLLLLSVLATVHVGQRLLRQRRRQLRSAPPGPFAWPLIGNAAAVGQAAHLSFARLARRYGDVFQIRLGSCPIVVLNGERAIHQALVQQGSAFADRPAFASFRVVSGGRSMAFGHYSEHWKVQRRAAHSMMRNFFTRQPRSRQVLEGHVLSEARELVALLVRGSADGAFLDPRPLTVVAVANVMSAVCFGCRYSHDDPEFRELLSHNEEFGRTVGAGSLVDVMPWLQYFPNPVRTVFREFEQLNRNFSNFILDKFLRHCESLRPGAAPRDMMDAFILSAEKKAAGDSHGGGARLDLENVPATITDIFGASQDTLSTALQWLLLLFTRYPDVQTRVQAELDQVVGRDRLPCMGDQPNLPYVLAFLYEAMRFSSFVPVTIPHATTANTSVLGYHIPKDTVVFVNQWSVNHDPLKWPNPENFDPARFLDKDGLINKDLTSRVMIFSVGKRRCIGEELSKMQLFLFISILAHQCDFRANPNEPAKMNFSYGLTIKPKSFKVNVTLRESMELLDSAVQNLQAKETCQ
The series can be described thus: Inhibition of recombinant human CYP1B1 assessed as inhibition ratio at 100 nM using 7-ethyl-0-resorufin as substrate incubated for 30 mins in presence of NADPH by EROD assay relative to control. The note with it: recombinant enzyme.

In series [7] the test system is A549. The series can be described thus: Inhibition of cell invasion in DMBA-induced human A549 cells at 5 uM by optical microscopic analysis. It counts as functional, cell-based.
Series [8] addresses Focal adhesion kinase 1 (Homo sapiens) (UniProt Q05397). The series can be described thus: Inhibition of FAK pathway in human A549/Taxol cells assessed as decrease in phosphorylated FAK level at 5 uM incubated for 24 hrs. It counts as cell-based.
Series [9] addresses T2, Mitogen-activated protein kinase; ERK1/ERK2 (Homo sapiens) (UniProt P27361+P28482). The series can be described thus: Inhibition of ERK1/2 pathway in human A549/Taxol cells assessed as decrease in phosphorylated ERK1/2 level at 5 uM incubated for 24 hrs. It counts as cell-based.
In series [10] the test system is NCI-H460. As to the kind of experiment: Inhibition of DMBA-induced CYP1B1 overexpression in human NCI-H460 cells assessed as increase in SRC level incubated for 24 hrs by densitometry analysis. The format is functional, cell-based. To be noted: dose 5.0 µM.
The subject of series [11] is A549/TR. The series can be described thus: Synergistic antiproliferative activity against human A549/Taxol cells assessed as increase in taxol by measuring combination index at 15 uM incubated for 72 hrs in presence of 0.06 uM taxol by MTT assay. It counts as functional.
In series [12] the test system is A549/TR. As to the kind of experiment: Synergistic antiproliferative activity against human A549/Taxol cells assessed as increase in taxol by measuring combination index at 7.50 uM incubated for 72 hrs in presence of 0.50 uM taxol by MTT assay. It counts as functional. The note with it: dose 7.5 µM. Background: Tetrazolium assays rely on reduction of a dye to a coloured formazan, in cell work by metabolically active cells.

In series [13] the target is T2, Mitogen-activated protein kinase; ERK1/ERK2 (Homo sapiens). As to the kind of experiment: Inhibition of ERK1/2 pathway in human A549/Taxol cells assessed as decrease in phosphorylated ERK1/2 level at 2.5 to 5 uM incubated for 24 hrs. The format is cell-based. The note with it: dose 2.5-5 µM.
Series [14] relates to A549/TR. As to the kind of experiment: Reversal of taxol resistance in human A549/Taxol cells assessed as suppression of P-gp expression level at 2.5 to 10 uM incubated for 20 mins by multimode plate reader analysis. The format is functional, cell-based. To be noted: dose 2.5-10 µM.
Series [15] has as its system A549/TR. As to the kind of experiment: Synergistic antiproliferative activity against human A549/Taxol cells assessed as increase in taxol by measuring combination index at 30 uM incubated for 72 hrs in presence of 0.06 uM taxol by MTT assay. The format is functional.
Series [16] has as its system A549/TR. As to the kind of experiment: Synergistic antiproliferative activity against human A549/Taxol cells assessed as increase in taxol by measuring combination index at 3.75 uM incubated for 72 hrs in presence of 1 uM taxol by MTT assay. The format is functional.
The target in series [17] is T3, Cytochrome P450 1B1 (Homo sapiens, UniProt Q16678).
T3 sequence (Q16678 whole entry): T1 sequence (Q16678 whole entry)
As to the kind of experiment: Inhibition of recombinant human CYP1B1 using 7-ethyl-0-resorufin as substrate incubated for 30 mins in presence of NADPH by EROD assay.

Series [18] deals with A549/TR. The series can be described thus: Reversal of taxol resistance human A549/Taxol cells assessed as increase in sensitivity at 5 uM incubated for 72 hrs by MTT assay. It counts as functional, cell-based.
Series [19] relates to A549/TR. The series can be described thus: Synergistic antiproliferative activity against human A549/Taxol cells assessed as increase in taxol by measuring combination index at 7.50 uM incubated for 72 hrs in presence of 1 uM taxol by MTT assay. To be noted: dose 7.5 µM. It counts as functional.
The subject of series [20] is A549/TR. The series can be described thus: Synergistic antiproliferative activity against human A549/Taxol cells assessed as increase in taxol by measuring combination index at 30 uM incubated for 72 hrs in presence of 0.13 uM taxol by MTT assay. The format is functional.
The subject of series [21] is A549/TR. The series can be described thus: Synergistic antiproliferative activity against human A549/Taxol cells assessed as increase in taxol by measuring combination index at 3.75 uM incubated for 72 hrs in presence of 0.25 uM taxol by MTT assay. The format is functional.

T2 sequence (P27361 whole entry, looked up): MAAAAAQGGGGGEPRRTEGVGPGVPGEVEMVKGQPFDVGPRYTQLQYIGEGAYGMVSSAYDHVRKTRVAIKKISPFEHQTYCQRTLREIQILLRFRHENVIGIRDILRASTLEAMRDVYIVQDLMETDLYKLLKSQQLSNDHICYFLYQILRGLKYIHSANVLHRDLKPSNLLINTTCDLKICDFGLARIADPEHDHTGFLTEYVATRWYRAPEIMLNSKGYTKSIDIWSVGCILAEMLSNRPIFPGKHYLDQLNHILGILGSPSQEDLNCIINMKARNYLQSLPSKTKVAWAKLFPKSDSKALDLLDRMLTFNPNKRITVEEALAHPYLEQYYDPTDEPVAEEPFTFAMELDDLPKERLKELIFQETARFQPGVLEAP
T2 sequence (P28482 whole entry, looked up): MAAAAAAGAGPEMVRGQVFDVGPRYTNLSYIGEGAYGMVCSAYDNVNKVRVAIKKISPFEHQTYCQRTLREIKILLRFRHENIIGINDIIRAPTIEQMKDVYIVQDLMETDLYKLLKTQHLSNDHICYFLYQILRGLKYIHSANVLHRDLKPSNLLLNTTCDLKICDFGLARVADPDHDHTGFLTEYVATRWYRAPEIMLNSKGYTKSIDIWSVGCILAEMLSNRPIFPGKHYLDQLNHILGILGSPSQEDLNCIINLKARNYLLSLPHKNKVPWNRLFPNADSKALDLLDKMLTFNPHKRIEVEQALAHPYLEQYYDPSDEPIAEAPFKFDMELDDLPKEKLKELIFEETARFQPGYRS
Sequence of Focal adhesion kinase 1 (Homo sapiens) (Q05397 2-1052 limits assumed): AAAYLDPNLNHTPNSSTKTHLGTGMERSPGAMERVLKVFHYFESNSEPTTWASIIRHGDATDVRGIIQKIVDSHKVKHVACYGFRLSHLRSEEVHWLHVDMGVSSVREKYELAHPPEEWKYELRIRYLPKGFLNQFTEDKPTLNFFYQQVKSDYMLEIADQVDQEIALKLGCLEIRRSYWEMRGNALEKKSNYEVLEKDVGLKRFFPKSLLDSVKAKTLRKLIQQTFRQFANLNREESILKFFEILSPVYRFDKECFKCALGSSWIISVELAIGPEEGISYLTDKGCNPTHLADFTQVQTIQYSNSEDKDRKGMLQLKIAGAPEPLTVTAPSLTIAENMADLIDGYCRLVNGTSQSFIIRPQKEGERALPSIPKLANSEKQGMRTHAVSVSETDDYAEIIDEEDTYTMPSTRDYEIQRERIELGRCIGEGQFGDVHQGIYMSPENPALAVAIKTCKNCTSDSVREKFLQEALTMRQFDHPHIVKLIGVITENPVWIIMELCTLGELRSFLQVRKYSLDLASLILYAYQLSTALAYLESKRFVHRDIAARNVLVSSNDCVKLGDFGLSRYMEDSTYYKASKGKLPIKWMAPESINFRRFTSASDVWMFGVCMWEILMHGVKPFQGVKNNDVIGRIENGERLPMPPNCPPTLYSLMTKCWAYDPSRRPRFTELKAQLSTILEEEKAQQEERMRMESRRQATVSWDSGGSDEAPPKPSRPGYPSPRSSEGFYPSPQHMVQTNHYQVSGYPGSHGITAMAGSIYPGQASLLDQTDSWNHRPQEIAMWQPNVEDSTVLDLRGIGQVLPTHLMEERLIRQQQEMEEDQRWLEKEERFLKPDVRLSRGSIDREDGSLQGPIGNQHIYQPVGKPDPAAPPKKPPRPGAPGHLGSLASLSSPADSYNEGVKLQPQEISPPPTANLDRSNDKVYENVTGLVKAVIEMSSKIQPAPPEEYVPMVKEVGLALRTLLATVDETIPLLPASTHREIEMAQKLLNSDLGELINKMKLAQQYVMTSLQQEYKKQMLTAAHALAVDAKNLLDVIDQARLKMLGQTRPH

As to `COc1cc(/C=C/c2ccc(OC)cc2OC)cc(OC)c1`, the inhibition entry in series [1], in [3] and in series [10] was “Dose-Dependent Effect” each time. Also, the outcome in [2] was inactive. The inhibition result in [4], in series [7], in series [8] and in [9] was “Active” each time. Further, in series [5], the inhibition entry was “inactive”. For the same compound, the inhibition at 0.5 h, 0.1 µM in [6] came out at 88.9%.

For `COc1cc(Nc2nc(-c3nc(-c4ccccc4F)cs3)cs2)cc(OC)c1`, the CI in series [11] is recorded as 0.2; in series [12], 0.66; in series [15], 0.09; in series [16], 1.89; in series [19], 1.36; in series [20], 0.11. Besides, the CI in series [21] worked out at 0.55. In series [13], the inhibition entry was “Active”. Further, the result in [14] and in series [18] was Active. Further, the IC50 in series [17] stood at 6.6 nM.
